Molecular target: Wild type FGFR2 (Homo sapiens (Human), UniProt P21802)
Test: FGFR2 kinase assay (fluorescence-based microfluidic mobility shift assay)
Assay type: biochemical
Conditions: not given

Wild type FGFR2, sequence (P21802 22-821): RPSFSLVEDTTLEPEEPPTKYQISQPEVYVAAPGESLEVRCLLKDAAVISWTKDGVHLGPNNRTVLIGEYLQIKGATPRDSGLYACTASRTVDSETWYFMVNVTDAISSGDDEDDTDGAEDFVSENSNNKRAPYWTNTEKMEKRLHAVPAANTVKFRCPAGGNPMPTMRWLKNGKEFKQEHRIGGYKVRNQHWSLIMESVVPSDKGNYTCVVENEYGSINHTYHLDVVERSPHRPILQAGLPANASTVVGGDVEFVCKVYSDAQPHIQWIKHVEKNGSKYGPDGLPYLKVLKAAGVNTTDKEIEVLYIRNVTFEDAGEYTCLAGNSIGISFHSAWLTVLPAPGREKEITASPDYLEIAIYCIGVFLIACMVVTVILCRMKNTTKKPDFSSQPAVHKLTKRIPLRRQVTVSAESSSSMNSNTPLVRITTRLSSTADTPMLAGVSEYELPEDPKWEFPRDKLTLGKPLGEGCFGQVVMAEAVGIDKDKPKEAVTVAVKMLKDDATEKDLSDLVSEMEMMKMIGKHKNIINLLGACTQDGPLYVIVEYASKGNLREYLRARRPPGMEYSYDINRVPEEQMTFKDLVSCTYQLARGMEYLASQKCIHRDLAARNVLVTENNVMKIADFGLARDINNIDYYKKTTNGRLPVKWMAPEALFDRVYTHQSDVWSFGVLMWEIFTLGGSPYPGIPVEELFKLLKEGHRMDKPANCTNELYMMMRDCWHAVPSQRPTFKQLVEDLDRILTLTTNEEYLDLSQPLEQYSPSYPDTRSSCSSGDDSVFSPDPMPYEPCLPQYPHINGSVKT

| SMILES | IC50 [nM] |
| --- | --- |
| C=CC(=O)N1C[C@@H](n2nc(C#Cc3cc4nccc(C)c4cc3F)c(C(N)=O)c2NC)C[C@@H]1COC [Example 274, 3-[2-(6-Fluoro-4-methylquinolin-7-yl)ethynyl]-1-[(3S,5R)-5-(methoxymethyl)-1-(prop-2-enoyl)pyrrolidin-3-yl]-5-(methylamino)pyrazole-4-carboxamide] | < 100 |

Same assay, conditions: wild type FGFR2 0.06 nM, 100 μM ATP, 80 minutes at room temperature; class symbols

| SMILES | IC50 [nM] |
| --- | --- |
| C=CC(=O)N1C[C@@H](n2nc(C#Cc3cc4ncn(C5CC5)c4cc3F)c(C(N)=O)c2N)C[C@@H]1[C@H](C)O [Example 241, 5-Amino-3-[2-(1-cyclopropyl-6-fluoro-1,3-benzodiazol-5-yl)ethynyl]-1-[(3S,5R)-5-[(1S)-1-hydroxyethyl]-1-(prop-2-enoyl)pyrrolidin-3-yl]pyrazole-4-carboxamide] | ≤ 100 |
| C=CC(=O)N1C[C@@H](n2nc(C#Cc3cc4nc(C)n(C5CC5)c4cc3Cl)c(C(N)=O)c2N)C[C@@H]1[C@@H](C)O [Example 244, 1-((3S,5R)-1-Acryloyl-5-((R)-1-hydroxyethyl)pyrrolidin-3-yl)-5-amino-3-((6-chloro-1-cyclopropyl-2-methyl-1H-benzo[d]imidazol-5-yl)ethynyl)-1H-pyrazole-4-carboxamide] | ≤ 100 |
| C=CC(=O)N1C[C@@H](n2nc(C#Cc3cc4nc(C)n(C5CC5)c4cc3Cl)c(C(N)=O)c2N)C[C@@H]1[C@H](C)O [Example 245, 1-((3S,5R)-1-Acryloyl-5-((S)-1-hydroxyethyl)pyrrolidin-3-yl)-5-amino-3-((6-chloro-1-cyclopropyl-2-methyl-1H-benzo[d]imidazol-5-yl)ethynyl)-1H-pyrazole-4-carboxamide] | ≤ 100 |
| C=CC(=O)N1C[C@@H](n2nc(C#Cc3cc4nc(C)n(C5CC5)c4cc3F)c(C(N)=O)c2N)C[C@@H]1[C@@H](C)O [Example 246] | ≤ 100 |
| C=CC(=O)N1C[C@@H](n2nc(C#Cc3cc4nc(C)n(C5CC5)c4cc3F)c(C(N)=O)c2N)C[C@@H]1[C@H](C)O [Example 247, 5-Amino-3-[2-(1-cyclopropyl-6-fluoro-2-methyl-1,3-benzodiazol-5-yl)ethynyl]-1-[(3S,5R)-5-[(1S)-1-hydroxyethyl]-1-(prop-2-enoyl)pyrrolidin-3-yl]pyrazole-4-carboxamide] | ≤ 100 |
| C=CC(=O)N1C[C@@H](n2nc(C#Cc3cc4ncn(C5COC5)c4cc3Cl)c(C(N)=O)c2NC)C[C@@H]1COC [Example 248] | ≤ 100 |
| C=CC(=O)N1C[C@@H](n2nc(C#Cc3cc4nc(C)n(C5COC5)c4cc3Cl)c(C(N)=O)c2NC)C[C@@H]1COC [Example 249, 3-{2-[6-chloro-2-methyl-1-(oxetan-3-yl)-1,3-benzodiazol-5-yl]ethynyl}-1-[(3S,5R)-5-(methoxymethyl)-1-(prop-2-enoyl)pyrrolidin-3-yl]-5-(methylamino)pyrazole-4-carboxamide] | ≤ 100 |
| C=CC(=O)N1C[C@@H](n2nc(C#Cc3c(F)cc4c(ncn4C4CC4)c3F)c(C(N)=O)c2NCCO)C[C@@H]1COC [Example 251, 3-[2-(1-Cyclopropyl-4,6-difluoro-1,3-benzodiazol-5-yl)ethynyl]-5-[(2-hydroxyethyl)amino]-1-[(3S,5R)-5-(methoxymethyl)-1-(prop-2-enoyl)pyrrolidin-3-yl]pyrazole-4-carboxamide] | ≤ 100 |
| C=CC(=O)N1C[C@@H](n2nc(C#Cc3cc4nc(C)n(C5CC5)c4cc3F)c(C(N)=O)c2NCCO)C[C@@H]1COC [Example 252, 3-[2-(1-Cyclopropyl-6-fluoro-2-methyl-1,3-benzodiazol-5-yl)ethynyl]-5-[(2-hydroxyethyl)amino]-1-[(3S,5R)-5-(methoxymethyl)-1-(prop-2-enoyl)pyrrolidin-3-yl]pyrazole-4-carboxamide] | ≤ 100 |
| C=CC(=O)N1C[C@@H](n2nc(C#Cc3cc4nc(C)n(C5CC5)c4cc3Cl)c(C(N)=O)c2NCCO)C[C@@H]1COC [Example 253, 1-((3S,5R)-1-Acryloyl-5-(methoxymethyl)pyrrolidin-3-yl)-3-((6-chloro-1-cyclopropyl-2-methyl-1H-benzo[d]imidazol-5-yl)ethynyl)-5-((2-hydroxyethyl)amino)-1H-pyrazole-4-carboxamide] | ≤ 100 |
| C=CC(=O)N1C[C@@H](n2nc(C#Cc3cc4c(cc3F)OCO4)c(C(N)=O)c2NC)C[C@@H]1COC [Example 254, 3-[2-(6-Fluoro-2H-1,3-benzodioxol-5-yl)ethynyl]-1-[(3S,5R)-5-(methoxymethyl)-1-(prop-2-enoyl)pyrrolidin-3-yl]-5-(methylamino)pyrazole-4-carboxamide] | ≤ 100 |
| C=CC(=O)N1C[C@@H](n2nc(C#Cc3cc4ncc(Cl)cc4cc3F)c(C(N)=O)c2NC)C[C@@H]1COC [Example 256, 3-[2-(3-Chloro-6-fluoroquinolin-7-yl)ethynyl]-1-[(3S,5R)-5-(methoxymethyl)-1-(prop-2-enoyl)pyrrolidin-3-yl]-5-(methylamino)pyrazole-4-carboxamide] | ≤ 100 |
| C=CC(=O)N1C[C@@H](n2nc(C#Cc3cc4ncc(C)n4cc3F)c(C(N)=O)c2NC)C[C@@H]1COC [Example 257, 1-((3S,5R)-1-Acryloyl-5-(methoxymethyl)pyrrolidin-3-yl)-3-((6-fluoro-3 methylimidazo[1,2-a]pyridin-7-yl)ethynyl)-5-(methylamino)-1H-pyrazole-4-carboxamide] | ≤ 100 |
| C=CC(=O)N1C[C@@H](n2nc(C#Cc3cc4ncc(C)cc4cc3Cl)c(C(N)=O)c2NC)C[C@@H]1COC [Example 258, 3-[2-(6-Chloro-3-methylquinolin-7-yl)ethynyl]-1-[(3S,5R)-5-(methoxymethyl)-1-(prop-2-enoyl)pyrrolidin-3-yl]-5-(methylamino)pyrazole-4-carboxamide] | ≤ 100 |
| C=CC(=O)N1C[C@@H](n2nc(C#Cc3cc4nc5n(c4cc3F)CCC5)c(C(N)=O)c2NC)C[C@@H]1COC [Example 260, 1-((3S,5R)-1-acryloyl-5-(methoxymethyl)pyrrolidin-3-yl)-3-((7-fluoro-2,3-dihydro-1H-benzo[d]pyrrolo[1,2-a]imidazol-6-yl)ethynyl)-5-(methylamino)-1H-pyrazole-4-carboxamide] | ≤ 100 |
| C=CC(=O)N1C[C@@H](n2nc(C#Cc3cc4ncc(C5CC5)n4cc3Cl)c(C(N)=O)c2NC)C[C@@H]1COC [Example 261, 3-(2-{6-Chloro-3-cyclopropylimidazo[1,2-a]pyridin-7-yl}ethynyl)-1-[(3S,5R)-5-(methoxymethyl)-1-(prop-2-enoyl)pyrrolidin-3-yl]-5-(methylamino)pyrazole-4-carboxamide] | ≤ 100 |
| C=CC(=O)N1C[C@@H](n2nc(C#Cc3cc4ncc(C#N)n4cc3F)c(C(N)=O)c2NC)C[C@@H]1COC [Example 262, 3-(2-{3-Cyano-6-fluoroimidazo[1,2-a]pyridin-7-yl}ethynyl)-1-[(3S,5R)-5-(methoxymethyl)-1-(prop-2-enoyl)pyrrolidin-3-yl]-5-(methylamino)pyrazole-4-carboxamide] | ≤ 100 |
| C=CC(=O)N1C[C@@H](n2nc(C#Cc3ccc4c(C#N)cnn4c3)c(C(N)=O)c2NC)C[C@@H]1COC [Example 263, 3-(2-{3-Cyanopyrazolo[1,5-a]pyridin-6-yl}ethynyl)-1-[(3S,5R)-5-(methoxymethyl)-1-(prop-2-enoyl)pyrrolidin-3-yl]-5-(methylamino)pyrazole-4-carboxamide] | ≤ 100 |
| C=CC(=O)N1C[C@@H](n2nc(C#Cc3cc4ncc(F)cc4cc3F)c(C(N)=O)c2NC)C[C@@H]1COC [Example 264, 3-[2-(3,6-Difluoroquinolin-7-yl)ethynyl]-1-[(3S,5R)-5-(methoxymethyl)-1-(prop-2-enoyl)pyrrolidin-3-yl]-5-(methylamino)pyrazole-4-carboxamide] | ≤ 100 |
| C=CC(=O)N1C[C@@H](n2nc(C#Cc3cc4ncc(C)cc4cc3C)c(C(N)=O)c2NC)C[C@@H]1COC [Example 265, 3-[2-(3,6-Dimethylquinolin-7-yl)ethynyl]-1-[(3S,5R)-5-(methoxymethyl)-1-(prop-2-enoyl)pyrrolidin-3-yl]-5-(methylamino)pyrazole-4-carboxamide] | ≤ 100 |
| C=CC(=O)N1C[C@@H](n2nc(C#Cc3cc4nncc(C)c4cc3F)c(C(N)=O)c2NC)C[C@@H]1COC [Example 266, 1-((3S,5R)-1-Acryloyl-5-(methoxymethyl)pyrrolidin-3-yl)-3-((6-fluoro-4-methylcinnolin-7-yl)ethynyl)-5-(methylamino)-1H-pyrazole-4-carboxamide] | ≤ 100 |
| C=CC(=O)N1C[C@@H](n2nc(C#Cc3cc4ncc(F)cc4cc3Cl)c(C(N)=O)c2NC)C[C@@H]1COC [Example 267, 3-[2-(6-Chloro-3-fluoroquinolin-7-yl)ethynyl]-1-[(3S,5R)-5-(methoxymethyl)-1-(prop-2-enoyl)pyrrolidin-3-yl]-5-(methylamino)pyrazole-4-carboxamide] | ≤ 100 |
| C=CC(=O)N1C[C@@H](n2nc(C#Cc3cc4nncc(C)c4cc3Cl)c(C(N)=O)c2NC)C[C@@H]1COC [Example 268, 1-((3S,5R)-1-acryloyl-5-(methoxymethyl)pyrrolidin-3-yl)-3-((6-chloro-4-methylcinnolin-7-yl)ethynyl)-5-(methylamino)-1H-pyrazole-4-carboxamide] | ≤ 100 |
| C=CC(=O)N1C[C@@H](n2nc(C#Cc3cc(OC)c4c(C#N)cnn4c3)c(C(N)=O)c2NC)C[C@@H]1COC [Example 270, 1-((3S,5R)-1-acryloyl-5-(methoxymethyl)pyrrolidin-3-yl)-3-((3-cyano-4-methoxypyrazolo[1,5-a]pyridin-6-yl)ethynyl)-5-(methylamino)-1H-pyrazole-4-carboxamide] | ≤ 100 |
| C=CC(=O)N1C[C@@H](n2nc(C#Cc3cc4ncc(C(F)F)cc4cc3F)c(C(N)=O)c2NC)C[C@@H]1COC [Example 273, 3-{2-[3-(Difluoromethyl)-6-fluoroquinolin-7-yl]ethynyl}-1-[(3S,5R)-5-(methoxymethyl)-1-(prop-2-enoyl)pyrrolidin-3-yl]-5-(methylamino)pyrazole-4-carboxamide] | ≤ 100 |
| C=CC(=O)N1C[C@@H](n2nc(C#Cc3cccc4c3cnn4C)c(C(N)=O)c2NC)C[C@@H]1COC [Example 275, 1-((3S,5R)-1-Acryloyl-5-(methoxymethyl)pyrrolidin-3-yl)-3-((1-methyl-1H-indazol-4-yl)ethynyl)-5-(methylamino)-1H-pyrazole-4-carboxamide] | ≤ 100 |

From patent publication US11345681B1, “Inhibitors of fibroblast growth factor receptor kinases” (Kinnate Biopharma Inc., priority 2020, dated 2022)
